Square brackets hold non-standard residues; d marks the D form. Peptide text beside a SMILES is read from it. pS = N[C@@H](COP(=O)(O)O)C(=O)O

Series [1] concerns human saphenous vein (HSV) rings. As to the kind of experiment: Inhibition of phenylephrine-induced HSV contraction. The following applies: HSV rings ex vivo; 2 h treatment; 1 μM phenylephrine; n ≥ 3 donors.
The test system of series [2] is human coronary artery vascular smooth muscle cells (HCAVSMCs). As to the kind of experiment: Cytotoxicity assay. It counts as cell-based. The settings on record: 10–500 μM peptide, 2 h treatment, then 24 h in fresh medium.

Regarding `CC(C)C[C@H](NC(=O)CNC(=O)[C@@H]1CCCN1C(=O)[C@H](CC(C)C)NC(=O)[C@@H]1CCCN1C(=O)[C@H](C)NC(=O)[C@H](COP(=O)(O)O)NC(=O)[C@H](C)NC(=O)[C@H](CCCNC(=N)N)NC(=O)[C@H](CCCNC(=N)N)NC(=O)[C@H](CC(C)C)NC(=O)[C@H](Cc1c[nH]c2ccccc12)NC(=O)[C@H](C)NC(=O)[C@H](CCCNC(=N)N)NC(=O)[C@H](C)NC(=O)[C@H](CCC(N)=O)NC(=O)[C@H](CCCNC(=N)N)NC(=O)[C@H](C)NC(=O)[C@H](C)NC(=O)[C@H](C)NC(=O)[C@H](CCCNC(=N)N)NC(=O)[C@H](C)NC(=O)[C@@H](N)Cc1ccc(O)cc1)C(=O)N[C@@H](CCCCN)C(=O)O` [p-HSP20] (H-YARAAARQARAWLRRA[pS]APLPGLK-OH; N-terminus and C-terminus assumed), the “inhibition of PE-induced HSV contraction” value in series [1] is given as “significantly inhibited the second PE-induced HSV contraction”. In addition, in series [2], the “cytotoxicity / biocompatibility” value is recorded as “biocompatible with the exception of mild cytotoxicity detected at 500 μM”.
